{"source": "patent US7374944B2", "about": "“Device and bioanalytical method utilizing asymmetric biofunctionalized membrane” (Purdue Research Foundation, priority 2001, dated 2008)", "key": {"[1]": {"test": "Impedance measurements of supported bolalipid membranes on Au electrodes", "description": "The effect of GA surface density on supported membrane impedance was determined using electrodes that had been coated with supported bolalipids by pretreatment with 2 prior to immersion for 24 hours into sonicated 1-GA vesicles containing varying amounts of GA. The 1-GA vesicle dispersions were prepared by sonicating dry 1-GA films in water (nominal GA:bolalipid molar ratios ranging from 1:500-1:50; 2 mM total lipid concentration). […] This observation is consistent with ^23Na NMR ion flux measurements made previously in our laboratory for gramicidin-containing 1 vesicles.\nThe effects of gramicidin loading on supported bolalipid membrane electrode impedance was further investigated in a sequential deposition experiment (FIG. 10). Adsorption of 2 onto Au electrodes for 1 hour to give partial surface coverage produced significant increases in impedance. Immersion of these pretreated electrodes into bolalipid vesicle solutions where gramicidin was either absent or present (i.e. 1 and 1-GA vesicles, respectively) produced membrane coated electrodes that had substantially different impedance characteristics in 10^−1-10^2 Hz frequency range. […]"}, "[2]": {"test": "Capacitance and single channel measurements of C20 bolalipid membranes", "conditions": "C20 bolalipid monolayer"}}, "data": [{"substance": "gramicidin", "values": [{"measurement": "impedance of 2-treated electrode after immersion in 1-GA membrane solution", "setting": "[1]; 1:100 molar ratio GA:1, 24 hours, compared with 2 or 2-1 coatings", "result": "observed impedances were lower"}, {"measurement": "effect of GA surface density on supported membrane impedance", "setting": "[1]; GA:bolalipid molar ratios 1:500-1:50, 1-10^3 Hz range", "result": "impedance decreases with increasing GA concentration"}, {"measurement": "ion flux across the membrane", "setting": "[2]", "result": "resulted in ion flux across the membrane"}]}]}
